Reference: PubChem BioAssay AID2060497 (Molecular Pharmacology Branch, DTP, NCI, 2025)
“And” between values parts separate entries of the source, which are not always exact repeats. Identical values can stand only once.

Test system: 317291-083-R-J1-PDC complex spheroids, viability
Test: Anticancer human tumor 317291-083-R-J1-PDC patient-derived soft tissue sarcoma cell line growth inhibition [GQUAD]
Conditions: for viability, T/C: stronger effect = lower value
Source text: DNA G-quadruplex Stabilizer Agents in Combinations in Complex Spheroids
A high-throughput screen of multi-cell type tumor spheroids was designed to identify active combinations of DNA G-quadruplex stabilizer agents and targeted small molecules. Complex spheroids include a stromal component modeled by human endothelial cells (HUVEC) and fibroblasts modeled by human mesenchymal stem cells (MSCs). The concentration ranges selected for each drug and investigational agent were based upon clinically achievable concentrations if the clinical Cmax of the agent was known.
Compounds. The drugs and investigational agents: pidnarulex (CX-5461; NSC782164), APTO-253 (NSC789042), BRACO-19 (NSC847499), peposertib (NSC802822), ceralasertib (NSC780249), elimusertib (NSC800525), camonsertib (NSC841442), AZD-1390 (NSC803789), olaparib (NSC753686), talazoparib (NSC767125), ART-558 (NSC835418), sotorasib (NSC818433), MRTX-1133 (NSC836407), SN-38 (NSC673596), topotecan (NSC609699), etoposide (NSC141540), doxorubicin (NSC123127), gemcitabine (NSC613327), 5-fluorouracil (NSC19893), paclitaxel (NSC125973), vemurafenib (NSC761431), panobinostat (NSC761190), R-306465 (JNJ-16241199; NSC773264), adavosertib (NSC754352), TP-3654 (NSC805149), carboplatin (NSC241240), KSQ-4279 (NSC840948), and staurosporine (NSC755774) were obtained from the National Cancer Institute (NCI) Developmental Therapeutics Program Chemical Repository (34). The FDA-approved anticancer drug set is available from the NCI Developmental Therapeutics Program. […] The stock solutions were prepared in dimethyl sulfoxide (DMSO, Sigma-Aldrich, St. Louis, MO, cat. D2650) at 800-fold the tested concentration and stored at -70 degrees C prior to their use. All drugs and investigational agents were tested over a range starting from a high concentration at or near the clinical Cmax and decreasing in half-log increments. If the clinical Cmax for an agent had not been determined, the highest concentration tested was 10 microM.
2.3 Cell Culture. All cells were maintained in an incubator at 37 degrees C and 5% CO2 with 95% humidity. The PDC lines were cultured according to standard operating procedures established by the NCI PDMR. All PDCs were thawed and cultured in Matrigel-coated flasks prepared with a working solution of 1X Ham's F-12 nutrient mix, without supplementation (Invitrogen, cat. 11765054), 100 U/mL penicillin-streptomycin (Invitrogen, cat. 15140122), and 2.5% Matrigel (Corning Inc., cat. 354248) for the first three passages. The 857933-349-R-J2-PDC line was cultured in 6C/Colon 1B media, which includes advanced DMEM/F-12 (Thermo Fisher Scientific, cat. 12634028), 10 mM HEPES (Thermo Fisher Scientific, cat. 15630080), 1X GlutaMAX supplement (Thermo Fisher Scientific, cat. 35050061), 0.1 mg/mL primocin (InvivoGen, cat. ant-pm-2), 10% defined fetal bovine serum, heat inactivated (HyClone Laboratories Inc., cat. SH30070.03HI), 50% L-WRN conditioned media (ATCC, cat. CRL-3276), 1.25 mM N-Acetyl-L-cysteine (Sigma-Aldrich, cat. A9165), 10 mM nicotinamide (Sigma-Aldrich, cat. N0636), 1X B-27 supplement (Thermo Fisher Scientific, cat. 17504044), 1X N-2 supplement (Thermo Fisher Scientific, cat. 17502048), 10 microM Y-27632 dihydrochloride (Tocris Bioscience, cat. 1254), and 50 ng/mL human EGF recombinant protein (Thermo Fisher Scientific, cat. PHG0311). The 485176-168-R4-J1-PDC line was cultured in Panc media, which includes all 6C/Colon 1B media components plus 100 ng/mL human FGF-10 (Thermo Fisher Scientific, cat. 100-26), 500 nM SB-431542 (Selleckchem, cat. S1067), and gastrin (Tocris, cat. 3006).
[…]
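Note: spheroids exposed to compounds for one week before readout.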
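Throughout, for viability, T/C: percent viability relative to DMSO vehicle wells taken as 100%.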

CC[C@@]1(O)C(=O)OCc2c1cc1n(c2=O)Cc2cc3c(CN(C)C)c(O)ccc3nc2-1 + Cc1cnc(CNC(=O)c2c(=O)c3ccc(N4CCCN(C)CC4)nc3n3c2sc2ccccc23)cn1
IC50 (curve of first compound, second compound 0.0316 µM): 35.5 nM
IC50 (curve of first compound, second compound 0.1 µM): 19 nM
IC50 (curve of first compound, second compound 0.316 µM): < 0.999 nM
IC50 (curve of first compound, second compound 1 µM): < 0.999 nM
IC50 (curve of first compound, second compound 3.16 µM): < 0.999 nM
IC50 (curve of first compound, second compound 10 µM): < 0.999 nM
viability, T/C (second compound 0.0316 µM, first compound 0.000999 µM): 86.2%
viability, T/C (second compound 0.0316 µM, first compound 0.00316 µM): 93.8%
viability, T/C (second compound 0.0316 µM, first compound 0.00999 µM): 91.7%
viability, T/C (second compound 0.0316 µM, first compound 0.0316 µM): 53.3%
viability, T/C (second compound 0.0316 µM, first compound 0.0999 µM): 20.8%
viability, T/C (second compound 0.0316 µM, first compound 0.316 µM): 15.8%
viability, T/C (second compound 0.1 µM, first compound 0.000999 µM): 71%
viability, T/C (second compound 0.1 µM, first compound 0.00316 µM): 80.7%
viability, T/C (second compound 0.1 µM, first compound 0.00999 µM): 78.1%
viability, T/C (second compound 0.1 µM, first compound 0.0316 µM): 29%
viability, T/C (second compound 0.1 µM, first compound 0.0999 µM): 21.9%
viability, T/C (second compound 0.1 µM, first compound 0.316 µM): 12.8%
viability, T/C (second compound 0.316 µM, first compound 0.000999 µM): 43.5%
viability, T/C (second compound 0.316 µM, first compound 0.00316 µM): 52.9%
viability, T/C (second compound 0.316 µM, first compound 0.00999 µM): 28.2%
viability, T/C (second compound 0.316 µM, first compound 0.0316 µM): 20.7%
viability, T/C (second compound 0.316 µM, first compound 0.0999 µM): 17.3%
viability, T/C (second compound 0.316 µM, first compound 0.316 µM): 9.62%
viability, T/C (second compound 1 µM, first compound 0.000999 µM): 35.7%
viability, T/C (second compound 1 µM, first compound 0.00316 µM): 28.2%
viability, T/C (second compound 1 µM, first compound 0.00999 µM): 25.6%
viability, T/C (second compound 1 µM, first compound 0.0316 µM): 20.1%
viability, T/C (second compound 1 µM, first compound 0.0999 µM): 14.7%
viability, T/C (second compound 1 µM, first compound 0.316 µM): 15.3%
viability, T/C (second compound 3.16 µM, first compound 0.000999 µM): 39.7%
viability, T/C (second compound 3.16 µM, first compound 0.00316 µM): 37.8%
viability, T/C (second compound 3.16 µM, first compound 0.00999 µM): 16.1%
viability, T/C (second compound 3.16 µM, first compound 0.0316 µM): 14.7%
viability, T/C (second compound 3.16 µM, first compound 0.0999 µM): 13.4%
viability, T/C (second compound 3.16 µM, first compound 0.316 µM): 7.16%
viability, T/C (second compound 10 µM, first compound 0.000999 µM): 28.9%
viability, T/C (second compound 10 µM, first compound 0.00316 µM): 30.3%
viability, T/C (second compound 10 µM, first compound 0.00999 µM): 45.9%
viability, T/C (second compound 10 µM, first compound 0.0316 µM): 19.7%
viability, T/C (second compound 10 µM, first compound 0.0999 µM): 24%
viability, T/C (second compound 10 µM, first compound 0.316 µM): 12.2%

Cc1[nH]c2ccc(F)cc2c1-c1nc2c3cccnc3c3ncccc3c2[nH]1
IC50 (compound alone, run of 02/20/2024): > 10000 nM

CC(=O)O[C@H]1C(=O)[C@@]2(C)[C@H]([C@H](OC(=O)c3ccccc3)[C@]3(O)C[C@H](OC(=O)[C@H](O)[C@@H](NC(=O)c4ccccc4)c4ccccc4)C(C)=C1C3(C)C)[C@]1(OC(C)=O)CO[C@@H]1C[C@@H]2O
viability, T/C (compound 0.0316 µM): 57.3% and 36.6% and 33.9%
viability, T/C (compound 0.1 µM): 20.6% and 16.7% and 10.5%
viability, T/C (compound 0.316 µM): 13.1% and 15.6% and 6.57%
viability, T/C (compound 1 µM): 12.8% and 15.3% and 9.02%
viability, T/C (compound 3.16 µM): 12.2% and 9.53% and 10.6%
viability, T/C (compound 10 µM): 12.3% and 12.5% and 12.1%
IC50 (curve of compound): 39.7 nM and < 31.6 nM

O=C(NO)c1cnc(N2CCN(S(=O)(=O)c3ccc4ccccc4c3)CC2)nc1
viability, T/C (compound 0.0316 µM): 109% and 96.9% and 93.2%
viability, T/C (compound 0.1 µM): 62.2% and 72.5% and 96.7%
viability, T/C (compound 0.316 µM): 8.74% and 8.1% and 24.6%
viability, T/C (compound 1 µM): 0.24% and 0.48% and 0.9%
viability, T/C (compound 3.16 µM): 0.11% and 0.05% and 0.04%
viability, T/C (compound 10 µM): 0.29% and 1.01% and 0.08%
IC50 (curve of compound): 130 nM and 149 nM and 209 nM

CC(C)n1c(=O)n(C)c2cnc3cc(F)c(-c4ccc(OCCCN5CCCCC5)nc4)cc3c21
viability, T/C (compound 0.0316 µM): 104% and 95.2% and 133%
viability, T/C (compound 0.1 µM): 94% and 71.9% and 96.8%
viability, T/C (compound 0.316 µM): 103% and 92.6% and 102%
viability, T/C (compound 1 µM): 106% and 94.4% and 105%
viability, T/C (compound 3.16 µM): 81.3% and 74.1% and 100%
viability, T/C (compound 10 µM): 44.8% and 39.7% and 45.3%
IC50 (curve of compound): 8470 nM and 7090 nM and 9180 nM
